# Assay results from patent US11918000B2, “Methods for inducing resistance to virus in a plant, priming a plant to resist viruses, decreasing virus accumulation, or increasing PR1 expression in a plant” (Academia Sinica, priority 2019, dated 2024).
# Tests used:
# [1] = tested on: Tobacco mosaic virus (TMV); assay: Infection rate of TMV on Nicotiana benthamiana, inoculum from lyophilized infected leaves, RT-PCR detection; type: in vivo; conditions: N. benthamiana
# Method: (§1) Plants were grown in a growth chamber with 10,000 lux fluorescent light and a 16-h light/8-h dark cycle. N. glutinosa (6-7 weeks old, 8-10 leaf stage), N. benthamiana (3-4 weeks old, 5-6 leaf stage) and Brassica juncea (14 days old, 2-3 true-leaf stage) were used for treatment and/or inoculation. For virus inoculation, plants were dusted with 600-grit silicon carbide powder (Sigma-Aldrich, St. Louis, Mo., USA) and mechanically inoculated. Virus inoculum was prepared with 100 ml of 0.1 M potassium phosphate (KP) buffer (61.5% of 0.1 M K2HPO4 and 38.5% 0.1 M KH2PO4, pH 7.0) mixed with 0.1 g of lyophilized leaves of plants infected with Tobacco mosaic virus (TMV) (FIGS. 1, 4A-E, 8 and 9; FIG. 10, 11, 12, 14 and 15; Table 1), or TMV tagged with green fluorescence protein (TMV-GFP) (FIG. 5) (Rabindran, S., and Dawson, W.O. 2001. Assessment of recombinants that arise from the use of a TMV-based transient expression vector. Virology 284:182-189). Different concentrations of TMV purified particle inoculum was diluted with 0.1 M potassium phosphate (KP) buffer (61.5% of 0.1 M K2HPO4 and 38.5% 0.1 M KH2PO4, pH 7.0) (FIGS. 2, 3, and 4F; Table 2). Turnip mosaic virus (TuMV) inoculum was prepared with 0.1 g of fresh leaves from plants infected with TuMV ground with 10 ml of 0.1 M sodium phosphate buffer (0.1 M NaH2PO4, 0.1 M Na2HPO4 and 0.5% Na2SO3, pH 7.4). The severity of TMV or TuMV symptom of infected plants were scored based on external phenotype (FIG. 15). Transmission electron microscope (Philips Electronic Instruments, Mahwah, N.J.) was used to examine TMV particles of different inoculums.
# (§2) Whole plants were sprayed with 0.4 ml H2O, VB, culture filtrate derived from microorganism or 5 mM salicylic acid (SA, Sigma-Aldrich) for total of three times with a 24-h interval between each spray. Twenty-four hours after the final treatment, plants were rubbed with the virus inoculum.
# Besides using N. glutinosa for our initial screening, we also used N. benthamiana, a host that is highly susceptible to TMV, for resistance assay. N. benthamiana was pretreated with H2O, SA, VB, F2- or F8-culture filtrate as for pretreatment of N. glutinosa. All treated plants were inoculated with TMV inoculum made from lyophilized leaves of TMV infected N. benthamiana. […] With RT-PCR to detect TMV on all treated plants, the infection rate was much reduced with F8-culture filtrate than H2O, SA, VB or F2-culture filtrate pretreatment (Table 1). In our repeat experiments, the infection rate of TMV-inoculated plants with F8-culture filtrate pretreatment even decreased to 0% (Table 1). […] We prepared at least 7 different batches of F8-culture filtrate, and the ability to induce resistance against TMV was consistent between different batches (Table 1).
# [2] = tested on: Tobacco mosaic virus (TMV) particle; assay: Infection rate of purified TMV particle on Nicotiana benthamiana; type: in vivo; conditions: Table 2, N. benthamiana, 7 dpi, RT-PCR, SA 5 mM
# Method: as §1
# Leaves of TMV-infected N. benthamiana were harvested approximately 5 days after inoculation. The initial purification of TMV virus particles followed the protocol as described by Gooding and Hebert (1967) with modifications. Briefly, polyethylene glycol with molecular weight 8000 (PEG 8000) (Sigma-Aldrich) was used instead of PEG 6000. In addition, the semi-purified preparation was submitted to linear density sucrose gradient (0-18%), and ultracentrifuged at 228,000×g for 1.5 h. The light scattering region was collected and diluted with 100 ml of suspension buffer (35 mM Na2HPO4, 15 mM NaH2PO4 and 0.05% 2-mercaptoethanol, pH7.2). NaCl (0.4 g) and PEG 8000 (4 g) were added and stirred for at least 1 h on ice, then centrifuged at 9000×g for 15 min at 4° C. The pellets were re-suspended in 1 ml of suspension buffer. The concentration of the purified TMV suspension was determined (A260 nm=[…] for 1 mg/mL of TMV) with a Nanodrop (ND-1000, Thermo Fisher Scientific, MA, USA).
# as §2
# In addition to using inoculum made from lyophilized leaves of TMV infected N. benthamiana, we also used different concentrations (1 μg/ml, 10 μg/ml and 50 μg/ml) of purified TMV particles as inoculum to inoculate N. glutinosa and N. benthamiana pretreated with H2O, SA, VB, or F8-culture filtrate (FIG. 2, FIG. 3). […] The infection rate of TMV on N. benthamiana was also detected by use of qRT-PCR (Table 2).
# [3] = tested on: Tobacco mosaic virus (TMV); assay: Symptoms / disease index induced by TMV in Nicotiana benthamiana; type: in vivo; conditions: N. benthamiana; systemic protection test; 7 dpi
# Method: FIG. 15A and FIG. 15B show disease index of N. benthamiana inoculated with TMV and Brassica juncea inoculated with TuMV. (FIG. 15A) N. benthamiana were inoculated with TMV. The disease index was classified into 4 levels according to the degree of yellowing, stunting and wilting at 7 dpi. (FIG. 15B) Brassica juncea were inoculated with TuMV. The disease index was classified into 3 levels according to the degree of leaf mosaic and stunting at 13 dpi.
# Plants were grown in a growth chamber with 10,000 lux fluorescent light and a 16-h light/8-h dark cycle. N. glutinosa (6-7 weeks old, 8-10 leaf stage), N. benthamiana (3-4 weeks old, 5-6 leaf stage) and Brassica juncea (14 days old, 2-3 true-leaf stage) were used for treatment and/or inoculation. […] Virus inoculum was prepared with 100 ml of 0.1 M potassium phosphate (KP) buffer (61.5% of 0.1 M K2HPO4 and 38.5% 0.1 M KH2PO4, pH 7.0) mixed with 0.1 g of lyophilized leaves of plants infected with Tobacco mosaic virus (TMV) (FIGS. 1, 4A-E, 8 and 9; FIG. 10, 11, 12, 14 and 15; Table 1), or TMV tagged with green fluorescence protein (TMV-GFP) (FIG. 5) (Rabindran, S., and Dawson, W.O. 2001. Assessment of recombinants that arise from the use of a TMV-based transient expression vector. Virology 284:182-189). […] The severity of TMV or TuMV symptom of infected plants were scored based on external phenotype (FIG. 15). […]
# [4] = tested on: TMV tagged with green fluorescence protein (TMV-GFP); assay: TMV-GFP infection of Nicotiana benthamiana (fluorescent infection foci); type: in vivo; conditions: N. benthamiana
# Method: as §1, §2
# Photographs of TMV-GFP fluorescent infection foci in N. benthamiana leaves were taken under UV light at 5 and 7 days post-inoculation (dpi), and the level of fluorescence as well as the areas of fluorescent infection sites in each leaf were measured by using ImageJ v1.47. All imaging was conducted under identical illumination and exposure conditions to allow for comparisons. Mean values of areas of all infection foci per treatment were calculated.
# To analyze which virus infection steps are affected in F8-culture filtrate-treated plants, we used TMV tagged with green fluorescence protein (GFP) to inoculate N. benthamiana and monitor the infection of TMV. […] To compare TMV-GFP accumulation in each foci, we used a puncher to collect GFP foci under UV light and used qRT-PCR to quantify the TMV-GFP expression. […]
# PR-1 = assay: Relative expression of PR-1 by qRT-PCR; type: in vivo, Nicotiana benthamiana; conditions: N. benthamiana, no TMV, 24 hpt
# Source text: Total RNA was isolated by use of Trizol (Invitrogen, Bethesda, Md.) according to the manufacturer's instruction. Residual DNA was removed by using the TURBO DNA-free kit (Ambion, Austin Tex., USA). cDNA was synthesized by using the PrimeScript RT-PCR Kit (Takara Bio, Shiga, Japan). Quantitative RT-PCR (qRT-PCR) involved the SYBR protocol (Life Technologies) and the ABI 7100 real-time PCR system (Applied Biosystems, Carlsbad, Calif.). For quantitative analysis, actin was used as an input control. Relative fold change in mRNA expression was determined by calculating 2^−ΔΔCt. The sequences of primers used are in Table S1.
# We collected both the local and upper un-treated (systemic) leaves at 24 h post-treatment (hpt) to analyze the expression of the PR-1 gene (a SAR marker gene) (Zheng et al., 2015). PR-1 gene expression was detected in SA- and VB- but not F8-culture filtrate-treated local leaves (FIG. 4C). […] In addition, we collected leaves from plants with whole plants pretreated with H2O, SA, VB or F8-culture filtrate. Consistently, PR-1 gene induction was detected in leaves of whole plants pretreated with SA and VB but not whole plants pretreated with F8-culture filtrate at 24 hpt (FIG. 4E).
# To analyze how F8-polysaccharide induces plant viral resistance, we measured the expression of SA-, JA- and ET-responsive immune marker genes in H2O- and F8-polysaccharide-treated plants (Cortes-Barco et al., 2010; Milling et al., 2011; Zhu et al., 2014). We first confirmed the induction of marker genes induced by SA (PR-1 and PR-2), JA (PDF-1.2 and PR-4), and ET (Osm and EREBP) in N. benthamiana (FIG. 14A). Plants were pretreated with H2O and F8-polysacccharide for total of three times with a 24-h interval between each spray as described previously, then leaves were collected from one set of individual plants at 0, 12, 24, 36, 48, 72, and 96 hpt. […] We detected the accumulation of TMV and the expression of SA-, JA- and ET-responsive immune marker genes (FIG. 9A-D, FIGS. S5C and D). […]
# [5] = Table 1, lyophilized leaf inoculum, 7 dpi, RT-PCR, SA 5 mM
# [6] = Table S3, fractions derived from F8-culture filtrate, 7 dpi, RT-PCR
compound,measurement,setting,value
"O=C(O)c1ccccc1O [SA, salicylic acid]",infection rate of TMV-inoculated plants,[1]; pretreatment before TMV inoculation,100%
same,"infection rate of TMV: number of plants detected with TMV to total TMV inoculated plants, Exp. 2",[1]; [5],5/5
same,"infection rate of TMV: number of plants detected with TMV to total TMV inoculated plants, Exp. 3",[1]; [5],4/5
same,"infection rate of TMV: number of plants detected with TMV to total TMV inoculated plants, Exp. 4",[1]; [5],5/5
same,"infection rate of TMV: number of plants detected with TMV to total TMV inoculated plants, Exp. 5",[1]; [5],5/5
same,"infection rate of TMV: number of plants detected with TMV to total TMV inoculated plants, Exp. 6",[1]; [5],5/5
same,"infection rate of TMV: number of plants detected with TMV to total TMV inoculated plants, Exp. 7",[1]; [5],5/5
same,"infection rate of TMV: number of plants detected with TMV to total TMV inoculated plants, Exp. 8",[1]; [5],5/5
same,"infection rate of TMV: number of plants detected with TMV to total TMV inoculated plants, Exp. 1","[1]; Table 1, three sprays at 24-h intervals, inoculum from lyophilized TMV-inoculated leaves, 7 dpi, RT-PCR, SA 5 mM",5/5
same,"infection rate of TMV: number of plants detected with TMV to total TMV inoculated plants, Total","[1]; Table 1, sum of Exp. 1-8, 7 dpi, RT-PCR",39/40
same,"infection rate of TMV: number of plants detected with TMV to total TMV inoculated plants, Exp. 1",[1]; [6],5/5
same,"infection rate of TMV: number of plants detected with TMV to total TMV inoculated plants, Exp. 2",[1]; [6],5/5
same,"infection rate of TMV: number of plants detected with TMV to total TMV inoculated plants, Exp. 3",[1]; [6],5/5
same,"infection rate of TMV: number of plants detected with TMV to total TMV inoculated plants, Total","[1]; Table S3, sum of Exp. 1-3, 7 dpi, RT-PCR",15/15
same,"infection rate of TMV particle: number of plants detected with TMV to total inoculated plants, Exp. 1, 1 μg/ml",[2]; TMV particle 1 μg/ml,6/6
same,"infection rate of TMV particle: number of plants detected with TMV to total inoculated plants, Exp. 2, 1 μg/ml",[2]; TMV particle 1 μg/ml,6/6
same,"infection rate of TMV particle: number of plants detected with TMV to total inoculated plants, Exp. 3, 1 μg/ml",[2]; TMV particle 1 μg/ml,15/15
same,"infection rate of TMV particle: number of plants detected with TMV to total inoculated plants, Exp. 1, 10 μg/ml",[2]; TMV particle 10 μg/ml,6/6
same,"infection rate of TMV particle: number of plants detected with TMV to total inoculated plants, Exp. 1, 50 μg/ml",[2]; TMV particle 50 μg/ml,6/6
same,viral symptoms with pretreatment of only local (lower) leaves and TMV inoculation of upper untreated leaves,[3],severe viral symptoms
same,number of initial TMV-GFP infection foci,[4]; 5 dpi,reduced
same,mean TMV accumulation per foci,[4]; qRT-PCR of punched GFP foci,similar
same,"infection rate of TMV-GFP: number of plants exhibiting green fluorescence under UV illumination to total TMV-GFP inoculated plants, Exp. 1","[4]; Table S2, 7 dpi, SA 5 mM",5/5
same,"infection rate of TMV-GFP: number of plants exhibiting green fluorescence under UV illumination to total TMV-GFP inoculated plants, Exp. 2","[4]; Table S2, 7 dpi, SA 5 mM",4/6
same,PR-1 gene expression in treated local leaves,PR-1; local leaves pretreated,detected
same,PR-1 gene expression on systemic (upper untreated) leaves,PR-1; local leaves pretreated,increased PR-1 gene expression
same,PR-1 gene induction in leaves of whole plants pretreated,PR-1; whole plant pretreated,detected
